The text below walks through data of publication PMC5142825 (Bioorganic & medicinal chemistry letters, 2016).

Like-named read-outs stand apart in the source and are kept apart here.

In data set [1] the target is T1, Porcn (Mus musculus, UniProt Q9JJJ7).
T1 sequence (Q9JJJ7 1-461): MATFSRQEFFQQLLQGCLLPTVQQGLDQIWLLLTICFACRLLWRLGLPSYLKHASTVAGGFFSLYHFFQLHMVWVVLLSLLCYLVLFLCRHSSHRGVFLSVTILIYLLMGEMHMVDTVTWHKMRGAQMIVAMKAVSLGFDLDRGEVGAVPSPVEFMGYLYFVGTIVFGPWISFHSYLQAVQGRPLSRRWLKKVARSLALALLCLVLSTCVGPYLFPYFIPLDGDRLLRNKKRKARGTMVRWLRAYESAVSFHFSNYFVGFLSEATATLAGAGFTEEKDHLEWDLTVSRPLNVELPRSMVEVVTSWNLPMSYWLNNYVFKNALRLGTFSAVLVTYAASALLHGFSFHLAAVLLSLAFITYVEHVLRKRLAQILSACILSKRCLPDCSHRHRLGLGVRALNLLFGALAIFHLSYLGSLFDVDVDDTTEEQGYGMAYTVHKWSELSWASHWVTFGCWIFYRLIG
Put plainly: Suppression of Wnt signaling in L-Wnt-STF cells. The data set is classed as cell-based.

A short description of data set [2]: Metabolic stability in murine liver S9 fractions. The class given is in vitro ADME. Particulars: for stability (in words): compared with 6.
Data set [3] can be described thus: Stability in murine plasma. The class given is in vitro ADME. To be noted: compared with 6.
Data set [4] addresses T1, Porcn. Particulars: L-Wnt-STF cells; cited from earlier work.
For data set [5] the following is noted: murine liver S9 fractions; cited from earlier work.
The conditions of data set [6]: murine plasma; cited from earlier work.
For data set [7] the following is noted: human plasma; cited from earlier work.
The test system of data set [8] is Dvl2/3 phosphorylation in HeLa cells. The data set can be described thus: Western blot of Dvl2/3 phosphorylation in HeLa cells. The data set is classed as cell-based. Particulars: 24 h incubation.
Data set [9] has as its system LRP6 phosphorylation in HeLa cells. Put plainly: Western blot of LRP6 phosphorylation in HeLa cells. The class given is cell-based. Particulars: 24 h incubation.

For the compound `Cc1ccc2nc(NC(=O)CSc3nc4c(c(=O)n3-c3ccccc3)SCC4)sc2c1` [IWP-2, reference compound], the “fold decrease of potency relative to 17” value in [1] (L-Wnt-STF cells) is reported as 5 fold.
Regarding `O=C(CSc1nnc(-c2ccncc2)o1)Nc1ccc(-c2cccnc2)cc1` [IWP-L1], the “activity against Wnt signaling” value in data set [1] (at low micromolar concentrations) is “inactive”.
`O=C(CSc1nnc(-c2ccncc2)n1-c1ccccc1)Nc1ccc(-c2cccnc2)cc1` [IWP-L2] returned a concentration giving a half-maximal response (EC50) in [1] of 0.3 nM. Further, the “stability (in words)” value in data set [2] and in data set [3] was “low stability” in each case.
For `O=C(CSc1nc2c(c(=O)n1-c1ccccc1)SCC2)Nc1ccc(-c2ccccc2)cn1` [IWP-L6], the “fold more potent than 1 (IWP-2)” value in data set [4] is 60 fold. For the same compound, the Half-life in data set [5] was 26 min; in [6], under 5 min. Moreover, in data set [7], the “stability (in words)” value was “good stability”.
As to `O=C(Cn1cc(-c2ccncc2)nn1)Nc1ccc(-c2ccccc2)cn1` [IWP-N3], the “stability (in words)” value in data set [2] and in data set [3] was “much more stable” throughout.
As for `O=C(Cn1nnc(-c2ccncc2)c1-c1ccccc1)Nc1ccc(-c2ccccc2)cn1` [IWP-O1], the “times more potent than LGK974” value in data set [1] (L-Wnt-STF cells) stood at 2.5 times. Moreover, the “phosphorylation of Dvl2/3” value in [8] is listed as “effectively suppressed”. Further, in [9], the “phosphorylation of LRP6” value is recorded as “suppressed”. In addition, the degradation after incubation entry in data set [2] (4 h) is given as “did not observe any degradation”. The “stability (in words)” value in data set [2] and in [3] was “much more stable” in each case.
For the compound `Cc1cc(-c2ncc(CC(=O)Nc3ccc(-c4cnccn4)cn3)cc2C)ccn1` [LGK974, reference compound], the concentration giving a half-maximal response (EC50) in data set [1] amounted to 0.2 nM.
